Measured values taken from patent US20220071947A1, “PHARMACEUTICAL APPLICATION OF DIMYRICETIN-BASED DISELENIDE” (Shanghai Spark Pharmaceutical Co., Ltd., priority 2020, published 2022).
In brackets after ≈: the same amount, converted by molar mass. Like-named read-outs stand apart in the source and are kept apart here.

Legend:
[1] = tested on: MGC80-3(MGC-803) human gastric cancer cells; test: CCK-8 in vitro anti-tumor screening, human gastric cancer cells; format: cell-based; settings: 24 h
Procedure: (§1) In vitro screening of the efficacy of dimyricetin-based diselenide on 7 different human tumor cells (HEP3B2.1.7, NCI-H460, CALU-3, SW480, SIHA, PC-3, MGC80-3) was performed. Using the CCK-8 detection method, 10 drug concentrations was designed, and each concentration was arranged in 3 re-holes. […], 24 h, 48 h, and 72 h, was selected according to dynamic microscopy. The positive drug was cisplatin. Cisplatin concentration gradient designed: 0 (i.e., the solvent control group), 1 μM, 5 μM, 10 μM, 20 μM, 40 μM, 60 μM, 80 μM, 100 μM, 135 μM. Dimyricetin-based diselenide drug concentration gradient designed: 0 (i.e., solvent control group), 1 μg/ml, 5 μg/ml, 25 μg/ml, 50 μg/ml, 75 μg/ml, 100 μg/ml, 125 μg/ml, 150 μg/ml, 200 μg/ml.
(§2) Step 1. Cell culture. […]
(§3) Step 3. […] Step 3-4, measuring the absorbance value: a microplate reader was used to measure the 450 nm absorbance value, and the inhibitory rate of the drug on the cells was calculated according to the formula. […]
(§4) Experimental group: the absorbance value of the cells and CCK-8 solution in the experimental group
(§5) Negative control: the absorbance value of control cells and CCK-8 solution
(§6) Blank control: absorbance value of medium and CCK-8 solution […]

[2] = tested on: HEP3B2.1.7 human liver cancer cells; test: CCK-8 in vitro anti-tumor screening, human liver cancer cells; format: cell-based; settings: HEP3B cells
Procedure: as §1, §2, §3, §4, §5, §6

[3] = tested on: SW480 primary colorectal cancer cells; test: CCK-8 in vitro anti-tumor screening, primary colorectal cancer cells; format: cell-based, human
Procedure: as §1, §2, §3, §4, §5, §6

[4] = tested on: Siha human cervical squamous cell carcinoma cells; test: CCK-8 in vitro anti-tumor screening, human cervical squamous cell carcinoma cells; format: cell-based
Procedure: as §1, §2, §3, §4, §5, §6

[5] = tested on: NCI-H460 human lung cancer cells (large cell lung cancer); test: CCK-8 in vitro anti-tumor screening, human lung cancer cells (large cell lung cancer); format: cell-based
Procedure: as §1, §2, §3, §4, §5, §6

[6] = tested on: PC-3 human prostate cancer cells; test: CCK-8 in vitro anti-tumor screening, human prostate cancer cells; format: cell-based; settings: pc-3 cells
Procedure: as §1, §2, §3, §4, §5, §6

[7] = tested on: Calu-3 human lung adenocarcinoma cells (pleural effusion); test: CCK-8 in vitro anti-tumor screening, human lung adenocarcinoma cells (pleural effusion); format: cell-based; settings: calu-3 cells, 24 h
Procedure: as §1, §2, §3, §4, §5, §6

2019-nCoV-M^pro protease = 2019-nCoV-M^pro protease (Severe acute respiratory syndrome coronavirus 2, UniProt P0DTD1); test: M^pro protease activity inhibition, fluorescence resonance energy transfer method; format: biochemical; settings: 30 nM protease, 20 μM substrate, 10 min preincubation at 30° C.
From the text: This example was the detection of M^pro protease activity inhibition of the targeted 2019-nCoV virus.
The mechanism is: after the new coronavirus invades the cell, it will use the host cell to synthesize two ultra-long replicase polypeptides (pp1a and pp1ab) necessary for self-replication. The replicase polypeptide needs to be further cut into multiple proteins (such as RdRp, helicase, etc.), and then assembled into the replication and transcription machinery required for the virus to initiate the replication of its own genetic material. M^pro has at least 11 cleavage sites on the replicase polypeptide. […]
The fluorescence resonance energy transfer method was used to evaluate the inhibitory activity of dimyricetin-based diselenide on 2019-nCoV-M^pro protease.
Specific detection method: the volume of the entire enzymatic reaction system is 120 μL, the final concentration of protease is 30 nM, and the final concentration of substrate is 20 μM. […] The substrate was added and quickly placed in the microplate reader for reading. […] The test time is 10 min, and the fluorescence value is read every 30 seconds. The final result is the first 2 minutes reading to fit the reaction rate, and compared with the control group (DMSO) to calculate the inhibition rate.

SMILES | IC50 ([1]; MGC803 cells) [µM] | IC50 ([2]; 48 h) [µM] | IC50 ([3]; 48 h) [µM] | IC50 ([4]; 48 h) [µM] | IC50 ([5]; 48 h) [µM] | IC50 ([6]; 48 h) [µM] | IC50 ([1]; Homo sapiens, MGC-803, MGC803 cells) [µg/mL] | IC50 ([2]; Homo sapiens, 24 h) [µg/mL] | IC50 ([3]; Homo sapiens, 24 h) [µg/mL] | IC50 ([4]; Homo sapiens, 24 h) [µg/mL] | IC50 ([5]; Homo sapiens, NCI-H460, 24 h) [µg/mL] | IC50 ([6]; Homo sapiens, 24 h) [µg/mL] | IC50 [7] [µg/mL] | IC50 (2019-nCoV-M^pro protease; read-out: IC50) [µM] | IC50 (2019-nCoV-M^pro protease; read-out: IC50 (μg/ml) (converted)) [µM]
N.N.[Cl][Pt][Cl] [Cisplatin, cisplatin, reference compound] | 23.2 | 8.83 | 46.7 | 65.5 | 47.4 | 45.7 |  |  |  |  |  |  |  |  | 
O=c1c(O)c(-c2cc(O)c(O)c(O)c2)oc2c([Se][Se]c3c(O)cc(O)c4c(=O)c(O)c(-c5cc(O)c(O)c(O)c5)oc34)c(O)cc(O)c12 [Dimyricetin-based diselenide, 8,8′-diselanediylbis(3,5,7-trihydroxy-2-(3,4,5-trihydroxyphenyl)-4H-1-benzopyran-4-one)] |  |  |  |  |  |  | 9.08 | 25.2 | 12.4 | 19.1 | 27.9 | 7.72 | 22.9 (≈ 29 µM) | 0.807 ± 0.083 | 0.806
